The text below walks through data of the NIST ThermoML archive (doi:10.1016/j.jct.2012.12.007).

The speed of sound is the propagation velocity of pressure waves in the medium. For orientation: mass density means mass per unit of volume.

The structures appear in SMILES notation. Numbers after ± are expanded uncertainties.

The conditions of the data set: 101.33 kPa, Liquid; for speed of sound: Sing-around technique in a fixed-path interferometer; for mass density: Vibrating tube method.

In the case of `CCCCO` [butan-1-ol], the speed of sound runs as follows: (293.15 K) 1256.2 ± 0.7 m/s; (298.15 K) 1239.6 ± 0.7 m/s; (303.15 K) 1223.8 ± 0.7 m/s. Besides, the mass density is on record as 809.89 ± 0.12 kg/m3 (293.15 K), 806.47 ± 0.12 kg/m3 (298.15 K) and 802.22 ± 0.12 kg/m3 (303.15 K).
Take `CCCCCCCCCCO` [decan-1-ol]: the speed of sound (293.15 K) came to 1397.1 ± 1.2 m/s, the speed of sound (298.15 K) came to 1380.3 ± 1.2 m/s and the speed of sound (303.15 K) amounted to 1364.1 ± 1.2 m/s. Further, the mass density was determined as 829.95 ± 0.24 kg/m3 (293.15 K), 826.95 ± 0.24 kg/m3 (298.15 K) and 823.15 ± 0.24 kg/m3 (303.15 K).
With `CCOCCOCCOCC` [diethylene glycol diethyl ether], the speed of sound by setting is: (293.15 K) 1259.4 ± 1.2 m/s; (298.15 K) 1239.9 ± 1.2 m/s; (303.15 K) 1221.8 ± 1.2 m/s. For the same compound, the mass density was 906.73 ± 0.23 kg/m3 (293.15 K), 902.88 ± 0.23 kg/m3 (298.15 K) and 897.22 ± 0.23 kg/m3 (303.15 K).
With `CO` [methanol], the speed of sound by setting is: (293.15 K) 1118 ± 1 m/s; (298.15 K) 1101.4 ± 0.6 m/s; (303.15 K) 1086.6 ± 0.6 m/s. The mass density by setting is: (293.15 K) 791.55 ± 0.12 kg/m3; (298.15 K) 787.2 ± 0.12 kg/m3; (303.15 K) 782.44 ± 0.12 kg/m3.
